Experimental data: ChEMBL document CHEMBL1142492 (J Med Chem, 2008)

Key:
[1] = Volume of distribution in Sprague-Dawley rat at 1 mg/kg, iv; details: in vivo
[2] = Half life in Sprague-Dawley rat at 1 mg/kg, iv; details: in vivo
[3] = Clearance in Sprague-Dawley rat at 1 mg/kg, iv; details: in vivo
[4] = target: CYP3A4 (Homo sapiens, UniProt P08684); assay: Inhibition of human CYP3A4 at 10 uM; format: ADME
[5] = target: T1, CYP1A2 (Homo sapiens, UniProt P05177); assay: Inhibition of human CYP1A2 at 10 uM; format: ADME
T1 sequence (P05177 whole entry): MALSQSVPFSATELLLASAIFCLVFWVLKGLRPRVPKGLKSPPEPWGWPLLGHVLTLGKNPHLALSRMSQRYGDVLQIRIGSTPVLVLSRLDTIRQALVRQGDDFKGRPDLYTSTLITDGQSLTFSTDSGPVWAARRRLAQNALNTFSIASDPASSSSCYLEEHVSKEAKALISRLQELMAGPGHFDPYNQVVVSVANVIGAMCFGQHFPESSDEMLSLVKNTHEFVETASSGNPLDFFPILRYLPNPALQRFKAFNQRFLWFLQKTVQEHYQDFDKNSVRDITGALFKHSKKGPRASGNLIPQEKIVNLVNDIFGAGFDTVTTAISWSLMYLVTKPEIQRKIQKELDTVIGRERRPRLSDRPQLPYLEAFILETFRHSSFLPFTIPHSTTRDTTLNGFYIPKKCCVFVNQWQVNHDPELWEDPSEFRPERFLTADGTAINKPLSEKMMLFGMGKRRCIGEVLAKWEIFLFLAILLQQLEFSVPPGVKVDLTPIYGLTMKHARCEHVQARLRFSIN

[6] = target: CYP2D6 (Homo sapiens, UniProt P10635); assay: Inhibition of human CYP2D6 at 10 uM; format: ADME
[7] = target: CYP2C9 (Homo sapiens, UniProt P11712); assay: Inhibition of human CYP2C9 at 10 uM; format: ADME
[8] = in vivo; details: Sprague-Dawley, rat, plasma, iv, 1 mg/kg
[9] = in vivo; details: Sprague-Dawley, rat, po, 2 mg/kg
[10] = target: RAC-alpha serine/threonine-protein kinase (Homo sapiens, UniProt P31749); assay: Inhibition of AKT1 after 55 mins
[11] = target: Rho-associated protein kinase 2 (Homo sapiens, UniProt O75116); assay: Inhibition of ROCK2
[12] = Inhibition of myosin light chain bisphosphorylation in rat A7r5 cells after 1 hr

CYP2C9, sequence (P11712 whole entry): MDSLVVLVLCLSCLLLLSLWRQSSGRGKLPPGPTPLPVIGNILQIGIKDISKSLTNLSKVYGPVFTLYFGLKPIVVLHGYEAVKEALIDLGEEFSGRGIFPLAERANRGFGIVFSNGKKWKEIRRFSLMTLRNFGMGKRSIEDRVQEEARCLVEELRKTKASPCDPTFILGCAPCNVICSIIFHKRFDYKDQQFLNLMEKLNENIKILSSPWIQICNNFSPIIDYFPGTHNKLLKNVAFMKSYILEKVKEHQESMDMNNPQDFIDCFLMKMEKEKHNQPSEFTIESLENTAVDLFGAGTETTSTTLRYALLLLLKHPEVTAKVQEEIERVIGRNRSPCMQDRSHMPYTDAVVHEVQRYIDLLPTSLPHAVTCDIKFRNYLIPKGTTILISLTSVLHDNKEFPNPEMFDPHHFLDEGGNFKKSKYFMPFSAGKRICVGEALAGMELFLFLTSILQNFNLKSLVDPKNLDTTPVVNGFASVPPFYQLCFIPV
CYP3A4, sequence (P08684 whole entry): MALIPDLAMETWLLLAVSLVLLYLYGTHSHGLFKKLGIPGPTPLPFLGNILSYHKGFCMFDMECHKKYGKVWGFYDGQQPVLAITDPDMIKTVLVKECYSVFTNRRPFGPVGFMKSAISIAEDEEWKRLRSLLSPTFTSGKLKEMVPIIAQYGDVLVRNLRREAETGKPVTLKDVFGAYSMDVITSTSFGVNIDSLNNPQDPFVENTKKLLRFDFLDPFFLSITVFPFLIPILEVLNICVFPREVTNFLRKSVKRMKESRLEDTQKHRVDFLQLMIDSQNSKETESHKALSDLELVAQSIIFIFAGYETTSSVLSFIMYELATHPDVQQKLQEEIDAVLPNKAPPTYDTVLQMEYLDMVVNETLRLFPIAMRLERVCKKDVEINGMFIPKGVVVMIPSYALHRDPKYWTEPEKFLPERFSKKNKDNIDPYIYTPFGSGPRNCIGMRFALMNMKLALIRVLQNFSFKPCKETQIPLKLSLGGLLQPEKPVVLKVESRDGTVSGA
CYP2D6, sequence (P10635 whole entry): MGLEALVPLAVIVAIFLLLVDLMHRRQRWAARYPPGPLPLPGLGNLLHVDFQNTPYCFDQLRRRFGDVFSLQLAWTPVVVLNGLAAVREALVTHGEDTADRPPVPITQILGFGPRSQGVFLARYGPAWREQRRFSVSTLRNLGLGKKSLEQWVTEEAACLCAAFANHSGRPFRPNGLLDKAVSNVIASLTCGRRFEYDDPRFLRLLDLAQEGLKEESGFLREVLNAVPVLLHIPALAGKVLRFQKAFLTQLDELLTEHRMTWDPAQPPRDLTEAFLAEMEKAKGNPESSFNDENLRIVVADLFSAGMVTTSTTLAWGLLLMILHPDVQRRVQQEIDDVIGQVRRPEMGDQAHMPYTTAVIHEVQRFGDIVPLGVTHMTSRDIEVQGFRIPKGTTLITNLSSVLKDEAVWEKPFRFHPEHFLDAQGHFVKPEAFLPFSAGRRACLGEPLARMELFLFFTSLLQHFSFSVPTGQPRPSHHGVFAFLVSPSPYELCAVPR
Rho-associated protein kinase 2, sequence (O75116 whole entry): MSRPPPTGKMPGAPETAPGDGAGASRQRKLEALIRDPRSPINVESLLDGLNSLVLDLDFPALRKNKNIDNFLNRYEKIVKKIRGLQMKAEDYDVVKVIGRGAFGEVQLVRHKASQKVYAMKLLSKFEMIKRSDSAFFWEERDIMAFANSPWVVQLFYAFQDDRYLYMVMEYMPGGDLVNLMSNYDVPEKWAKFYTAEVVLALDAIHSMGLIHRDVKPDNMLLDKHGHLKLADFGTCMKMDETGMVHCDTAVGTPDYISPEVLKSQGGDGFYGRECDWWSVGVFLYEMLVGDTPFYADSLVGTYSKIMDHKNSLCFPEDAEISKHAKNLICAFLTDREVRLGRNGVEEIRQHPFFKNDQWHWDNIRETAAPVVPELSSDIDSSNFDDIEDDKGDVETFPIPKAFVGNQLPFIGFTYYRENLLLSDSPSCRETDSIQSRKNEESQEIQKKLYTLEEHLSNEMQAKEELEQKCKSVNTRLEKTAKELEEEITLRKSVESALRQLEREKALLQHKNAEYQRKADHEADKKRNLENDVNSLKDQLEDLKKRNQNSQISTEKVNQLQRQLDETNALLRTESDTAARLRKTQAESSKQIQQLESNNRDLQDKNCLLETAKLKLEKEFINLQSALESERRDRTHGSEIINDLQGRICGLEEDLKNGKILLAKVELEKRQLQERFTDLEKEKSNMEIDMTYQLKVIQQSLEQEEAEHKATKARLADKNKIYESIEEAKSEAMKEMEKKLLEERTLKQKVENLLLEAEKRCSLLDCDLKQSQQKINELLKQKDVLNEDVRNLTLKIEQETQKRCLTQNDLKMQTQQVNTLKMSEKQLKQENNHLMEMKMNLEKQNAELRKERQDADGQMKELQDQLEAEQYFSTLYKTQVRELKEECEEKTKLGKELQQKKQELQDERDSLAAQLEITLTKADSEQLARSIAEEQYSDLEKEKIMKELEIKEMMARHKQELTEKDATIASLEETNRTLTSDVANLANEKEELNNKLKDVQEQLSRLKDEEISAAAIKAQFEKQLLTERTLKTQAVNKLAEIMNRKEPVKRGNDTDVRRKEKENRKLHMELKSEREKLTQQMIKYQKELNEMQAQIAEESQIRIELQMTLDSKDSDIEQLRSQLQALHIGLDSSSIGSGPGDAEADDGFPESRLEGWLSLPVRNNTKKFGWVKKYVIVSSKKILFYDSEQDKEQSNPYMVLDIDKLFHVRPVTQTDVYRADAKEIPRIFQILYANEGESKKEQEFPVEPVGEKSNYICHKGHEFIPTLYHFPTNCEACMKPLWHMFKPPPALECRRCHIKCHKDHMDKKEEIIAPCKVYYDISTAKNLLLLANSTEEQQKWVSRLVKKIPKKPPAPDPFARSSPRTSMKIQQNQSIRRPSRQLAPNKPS
RAC-alpha serine/threonine-protein kinase, sequence (P31749 whole entry): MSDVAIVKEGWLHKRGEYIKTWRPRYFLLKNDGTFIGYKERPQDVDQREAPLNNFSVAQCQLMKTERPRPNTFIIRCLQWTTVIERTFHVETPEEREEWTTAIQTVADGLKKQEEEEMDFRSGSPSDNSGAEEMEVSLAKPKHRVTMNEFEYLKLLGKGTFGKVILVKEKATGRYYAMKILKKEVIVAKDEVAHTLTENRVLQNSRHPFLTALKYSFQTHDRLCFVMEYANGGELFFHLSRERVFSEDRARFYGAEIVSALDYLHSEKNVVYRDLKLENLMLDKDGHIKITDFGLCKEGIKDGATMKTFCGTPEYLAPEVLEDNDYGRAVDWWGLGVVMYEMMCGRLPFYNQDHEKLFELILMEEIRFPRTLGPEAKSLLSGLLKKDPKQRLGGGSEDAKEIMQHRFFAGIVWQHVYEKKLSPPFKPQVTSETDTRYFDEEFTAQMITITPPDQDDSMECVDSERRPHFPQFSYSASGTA

| Compound | Vd [1] [L/kg] | half-life [2] [h] | clearance [3] [mL/min/kg] | inhibition at 10 µM [4] [%] | inhibition at 10 µM [5] [%] | inhibition at 10 µM [6] [%] | inhibition at 10 µM [7] [%] | AUC [8] [µM·h] | Cmax [9] [nM] | IC50 [10] [nM] | IC50 [11] [nM] | IC50 [12] [nM] |
| --- | --- | --- | --- | --- | --- | --- | --- | --- | --- | --- | --- | --- |
| O=C(Nc1ccc(-c2ccncc2)cc1)C1COc2ccccc2O1 (stereo unspecified) | 5.3 | 0.5 | 161 | 51 | 23 | 33 | 64 | 0.3 |  |  |  |  |
| O=C(Nc1ccc(-c2c[nH]cn2)cc1)C1COc2ccccc2O1 (stereo unspecified) | 1.9 | 2.2 | 18 | 1 | 20 | 40 | 87 | 2.8 | 20 |  |  |  |
| COc1cc(-c2cn[nH]c2)ccc1NC(=O)C1COc2ccccc2O1 (stereo unspecified) | 1 | 2.6 | 11 | 36 | 92 | 79 | 93 | 4.3 | 120 | 8820 | 3.3 |  |
| CN(C)CCOc1cc(-c2cn[nH]c2)ccc1N |  |  |  |  |  |  |  |  |  |  | 920 |  |
| CC(=O)Nc1ccc(-c2cn[nH]c2)cc1OCCN(C)C |  |  |  |  |  |  |  |  |  |  | 760 |  |
| O=C(Nc1nc(-c2ccncc2)cs1)C1COc2ccccc2O1 (stereo unspecified) | 3.7 | 0.4 | 181 | 80 | 90 | 94 | 96 | 0.3 |  | > 20000 | 7.2 | 137 |
